This is an account of results in PubChem BioAssay AID1745844 (Carcinogenic Potency Database (CPDB), 2022).

The subject of the data set is rodent lifetime carcinogenesis bioassay, tumor incidence TD50. Description: carcinogenic potency in animals, long-term in vivo studies, CPDB compilation (AID 1745844). The following applies: for carcinogen call: lesion: one or several types, types not named.

Activity calls are given as the source filed them. The rule behind the calls is not given here.

By TD50 is commonly meant the dose at which the toxic effect under study appears in half of the subjects. Turning to `CCN(CC)C(=S)S[Te](SC(=S)N(CC)CC)(SC(=S)N(CC)CC)SC(=S)N(CC)CC`, the TD50 by setting is: (mouse, strain B6AKF1, females, oral dosing, site: any site (literature study), lesion: several types, types named in the paper, dosed 76 weeks, study length 76 weeks) 26.7 mg/kg/day; (mouse, strain B6AKF1, females, oral dosing, site: lung, lesion: adenoma, dosed 76 weeks, study length 76 weeks) 28.2 mg/kg/day; (mouse, strain B6AKF1, males, oral dosing, site: any site (literature study), lesion: several types, types named in the paper, dosed 76 weeks, study length 76 weeks) 31.2 mg/kg/day; (mouse, strain B6AKF1, males, oral dosing, site: liver, lesion: hepatoma, dosed 76 weeks, study length 76 weeks) 55.5 mg/kg/day; (mouse, strain B6C3F1, females, in feed, site: any site (literature study), lesion: several types, types named in the paper, dosed 106 weeks, study length 106 weeks) 1030 mg/kg/day (inactive); (mouse, strain B6C3F1, females, in feed, site: liver, lesion: hepatocellular adenoma + hepatocellular carcinoma + neoplastic nodule, dosed 106 weeks, study length 106 weeks) 2270 mg/kg/day. Also, the TD50 is 3400 mg/kg/day (mouse, strain B6C3F1, females, in feed, site: lung, lesion: alveolar/bronchiolar adenoma + alveolar/bronchiolar carcinoma, dosed 106 weeks, study length 106 weeks); 63.5 mg/kg/day (mouse, strain B6C3F1, females, oral dosing, site: any site (literature study), lesion: several types, types named in the paper, dosed 76 weeks, study length 76 weeks); 131 mg/kg/day (mouse, strain B6C3F1, females, oral dosing, site: lung, lesion: adenoma, dosed 76 weeks, study length 76 weeks); 902 mg/kg/day (mouse, strain B6C3F1, males, in feed, site: any site (literature study), lesion: several types, types named in the paper, dosed 106 weeks, study length 106 weeks); 201 mg/kg/day (mouse, strain B6C3F1, males, in feed, site: eye, lesion: adenoma, NOS, dosed 106 weeks, study length 106 weeks); 228 mg/kg/day (mouse, strain B6C3F1, males, in feed, site: lung, lesion: alveolar/bronchiolar adenoma + alveolar/bronchiolar carcinoma, dosed 106 weeks, study length 106 weeks). Also, the TD50 runs as follows: (mouse, strain B6C3F1, males, in feed, site: lung, lesion: alveolar/bronchiolar carcinoma, dosed 106 weeks, study length 106 weeks) 260 mg/kg/day; (mouse, strain B6C3F1, males, oral dosing, site: any site (literature study), lesion: several types, types named in the paper, dosed 76 weeks, study length 76 weeks) 8.41 mg/kg/day; (mouse, strain B6C3F1, males, oral dosing, site: liver, lesion: hepatoma, dosed 76 weeks, study length 76 weeks) 24.2 mg/kg/day; (mouse, strain B6C3F1, males, oral dosing, site: lung, lesion: adenoma, dosed 76 weeks, study length 76 weeks) 108 mg/kg/day; (mouse, strain B6C3F1, males, oral dosing, site: lung, lesion: carcinoma, dosed 76 weeks, study length 76 weeks) 108 mg/kg/day; (mouse, strain B6C3F1, males, oral dosing, site: lung, lesion: several types, types named in the paper, dosed 76 weeks, study length 76 weeks) 52.1 mg/kg/day. Besides, the TD50 is 650 mg/kg/day (rat, strain Fischer 344, females, in feed, site: liver, lesion: hepatocellular adenoma + hepatocellular carcinoma + neoplastic nodule, dosed 105 weeks, study length 105 weeks); 12.3 mg/kg/day (inactive) (rat, strain Fischer 344, females, in feed, site: pituitary gland, lesion: adenoma, NOS, dosed 105 weeks, study length 105 weeks); 77.6 mg/kg/day (rat, strain Fischer 344, males, in feed, site: all sites, lesion: mesothelioma, NOS, dosed 105 weeks, study length 105 weeks); 181 mg/kg/day (rat, strain Fischer 344, males, in feed, site: body cavities, lesion: mesothelioma, NOS, dosed 105 weeks, study length 105 weeks).

With `CN(N=O)C(=O)c1ccccc1`, the TD50 was 11.2 mg/kg/day (rat, strain MRC-Wistar, females, in drinking water, site: any site (literature study), lesion: several types, types named in the paper, dosed 52 weeks, study length 130 weeks); 2.49 mg/kg/day (rat, strain MRC-Wistar, males, in drinking water, site: any site (literature study), lesion: several types, types named in the paper, dosed 52 weeks, study length 130 weeks); 3.23 mg/kg/day (rat, strain MRC-Wistar, males, in drinking water, site: forestomach, lesion: several types, types named in the paper, dosed 52 weeks, study length 130 weeks); 9.66 mg/kg/day (rat, strain MRC-Wistar, males, in drinking water, site: forestomach, lesion: squamous-cell carcinoma, dosed 52 weeks, study length 130 weeks); 7.73 mg/kg/day (rat, strain MRC-Wistar, males, in drinking water, site: forestomach, lesion: squamous-cell papilloma, dosed 52 weeks, study length 130 weeks). Moreover, the carcinogen call is, setting by setting: (rat, strain MRC-Wistar, females, in drinking water, site: liver, dosed 52 weeks, study length 130 weeks) “negative (inactive)”; (rat, strain MRC-Wistar, males, in drinking water, site: liver, dosed 52 weeks, study length 130 weeks) “negative (inactive)”.
